Source: patent US9945845B2, “Methods of screening using amphibians” (priority 2009, dated 2018)
“Also recorded” adds a separate entry of the source. Read-outs that look alike come from different tables or passages of the source.

Columns and labels:
HUVEC [1] = experiment: HUVEC tube formation assay; assay type: cell-based, human; conditions: 1 μM in 0.1% DMSO, overnight; for activity at 1 µM: Homo sapiens, HUVEC, read-out: HUVEC tube formation
Method: (§1) Human umbilical vein endothelial cells (HUVEC) were purchased from PromoCell. […] HUVEC and LEC were cultured in endothelial basal medium EBM (Cambrex) supplemented with 20% fetal bovine serum (Invitrogen), antibiotic-antimycotics (100 U/ml penicillin, 100 μg/ml streptomycin, 250 ng/ml amphotericin; Invitrogen). 2 mM L-glutamine (Invitrogen), 10 μg/ml hydrocortisone (Fluka) and 25 μg/ml N^6,2′-O-dibutyryladenosine 3′,5′-cyclic monophosphate sodium salt (Fluka) for up to eleven passages.
(§2) The effect of the selected chemicals on the formation of tube-like structures was performed as follows. […] After overnight incubation at 37° C. the treated cell cultures were fixed with 4% paraformaldehyde. Each chemical treatment was performed in triplicate and the experiment was repeated at least three times. Three representative images of hotspots with tube-like structures were taken per well using a digital camera (AxioCam MRm, Carl Zeiss) mounted on an inverted microscope (Axiovert 200M, Carl Zeiss). The length of the tube-like structures was measured using the IPLab software (BD Biosciences). For each experimental condition, results are represented as average total tube length (μm) per area (three image fields).
(§3) The effects of the selected compounds on endothelial tube formation was assessed after over treatment of LEC and HUVEC cultures at a compound concentration of 1 μM in 0.1% DMSO. The length of the tube-like structures was measured using the IPLab software.

LEC [2] = experiment: cells; assay type: cell-based, human; conditions: for activity at 1 µM: Homo sapiens, read-out: LEC tube formation
Method: as §1, §2, §3

LEC [3] = experiment: LEC cell proliferation assay; assay type: cell-based, human; conditions: 10 μM in 0.1% DMSO, 48 hours; for activity at 10 µM: Homo sapiens, 48 h, read-out: LEC proliferation
Method: as §1
(§4) The intensity of fluorescence, which is proportional to the number of viable cells, was measured using a microplate reader (SpectraMax Gemini EM; Molecular Devices). The chemical treatments were performed in five replicates.
(§5) The cell proliferation assays were performed by treating the endothelial cell cultures with compounds at a screening dose of 10 μM in 0.1% DMSO for 48 hours (FIG. 6a; Table 10).

HUVEC [4] = experiment: HUVEC cell proliferation assay; assay type: cell-based, human; conditions: 10 μM in 0.1% DMSO, 48 hours; for activity at 10 µM: Homo sapiens, HUVEC, 48 h, read-out: HUVEC proliferation
Method: as §1, §4, §5

Xenopus embryos = conditions: for Lethality: — = no stage of lethality given; for Type of edema Ventral: ‡ = edemas also detected in the gut; for Onset (NF): onset of edema, Nieuwkoop & Faber stage; for Onset (NF) / edema or other phenotype in compound-treated Xenopus embryos/tadpoles (in words): treatment from stage 31; for Embr. phen.: embryonic phenotype in the primary screen; for Type of edema Periocular: * = causing bulging eyes, # = bilateral, causing narrow-set eyes
Method in brief: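 Stage 31 (37 hpf) Xenopus embryos, five per well, exposed to 20 µM compound in 1% DMSO at 23 °C for 4 days. Edema, lethality and other external phenotypes were scored daily by two investigators at stages 39, 41, 45 and 47.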

[5] = test system: blood vessel development and/or lymphangiogenesis in Xenopus embryos; assay type: in vivo, Xenopus laevis; conditions: for lymph vessel development phenotype (vegfr3 expression, in words): 20 μM from stage 31, fixed at stage 42; for ALH phenotype: anterior lymph heart; for ALS phenotype: anterior lymph sac; for PLV phenotype: posterior lymph vessels; for blood vessel development phenotype (apj expression, in words): 20 μM from stage 31, fixed at stage 35/36; for ISV phenotype: intersomitic vessels; for PCV phenotype: posterior cardinal vein; for VVN phenotype: vitelline vein network
Method: All chemicals were purchased from Sigma and 10-mM stock solutions in DMSO were prepared. Chemicals were used at a final concentration of 20 μM in screening medium to treat homozygous albino Xenopus embryos, which lack natural pigmentation. Chemical treatments of embryos (n=7 per well) was initiated at stage 31 (37 hpf) and terminated at stages 35/36 (50 hpf) or 42 (80 hpf). Embryos were fixed in 4% paraformaldehyde and processed for whole mount in situ hybridization.
Where albino embryos were used, the bleaching step was omitted. Semi-automated whole mount in situ hybridizations were performed using the Biolane HTI machine (Hölle & Hüttner AG, Germany). […] Images were captured using a stereomicroscope (SteREO Lumar V12; Carl Zeiss) equipped with a digital camera (AxioCam Color; Carl Zeiss). Composite figures were organized and labeled using Adobe Photoshop CS2 and Adobe Illustrator CS software.
Edema formation or late-stage lethality may result from excretory system defects, (cardio)vascular and/or lymphatic vascular pathologies. […] Embryos were fixed for in situ hybridization either at stage 35/36 to analyze vasculogenesis and intersomitic vein angiogenesis defects or at stage 42 to evaluate possible defects in lymph vessel development (FIGS. 3-5).

[6] = compounds causing edema, 20 μM, 1% DMSO, treatment from stage 31, scored to stage 47

| SMILES | Lethality (NF) (Xenopus embryos; [6]) | Type of edema Pericordial (Xenopus embryos; embryonic stage) | Type of edema Pronephric (Xenopus embryos; embryonic stage) | Lethality (Xenopus embryos; embryonic stage) | Type of edema Ventral (Xenopus embryos; embryonic stage) | Onset (NF) (Xenopus embryos; 20 μM, 1% DMSO) | HUVEC tube formation (HUVEC [1]) | LEC tube formation (LEC [2]; 1 μM in 0.1% DMSO, overnight) | Embr. phen. (Xenopus embryos) | effect on LEC tube formation (in words) (LEC [2]; 1 μM in 0.1% DMSO) | blood vessel development phenotype (apj expression, in words) [5] | ISV phenotype ([5]; Xenopus embryos) | PCV phenotype ([5]; Xenopus embryos) | VVN phenotype ([5]; Xenopus embryos) | other results |
| --- | --- | --- | --- | --- | --- | --- | --- | --- | --- | --- | --- | --- | --- | --- | --- |
| CCOC(=O)C1=C(C)NC(C)=C(C(=O)OC)C1c1cccc(Cl)c1Cl (stereo not drawn) [Felodipine] | 45 NF | 41/42 | 41/42 | 45 embryonic stages according to Nieuwkoop and Faber (NF) | 41/42 | 41/42 | – | – | – | – | – | – | – | – | activity at 1 µM (HUVEC [1]): 50 to 85%; activity at 1 µM (LEC [2]; 1 μM in 0.1% DMSO, overnight): 85 to 115%; activity at 10 µM (LEC [3]): 85 to 115%; activity at 10 µM (HUVEC [4]): 85 to 115% |
| CN(C)c1cc2c(Nc3ccc4c(cnn4Cc4ccccc4)c3)ncnc2cn1 [GW2974, N4-(1-Benzyl-1H-indazol-5-yl)-N6,N6-dimethyl-pyrido[3,4-d)pyrimidine4-4,6-diamine] | 47 NF | 41/42 | – | 47 embryonic stages according to Nieuwkoop and Faber (NF) | 41/42 | 41/42 | − (−, moderate inhibition (50-85% of control):) | − (−, moderate inhibition (50-85% of control):) | EDE | – | – | – | – | – | edema or other phenotype in compound-treated Xenopus embryos/tadpoles (in words) (Xenopus embryos; 20 μM, 1% DMSO): enlarged lymph hearts; Lymph heart enlargement (Xenopus embryos; embryonic stage): 45 embryonic stages according to Nieuwkoop and Faber (NF); Type of edema Periocular (Xenopus embryos; embryonic stage): 41/42; lymph vessel development phenotype (vegfr3 expression, in words) [5]: inhibiting preferentially lymphatic vascular development; also recorded: lymphangiogenesis was largely suppressed; Blood vessel phenotype ([5]; Xenopus embryos): normal; ALH phenotype ([5]; Xenopus embryos): stunted; ALS phenotype ([5]; Xenopus embryos): impaired; PLV phenotype ([5]; Xenopus embryos): hypoplastic |
| O=C1Nc2ccc(I)cc2C1=Cc1cc(Br)c(O)c(Br)c1 [GW5074, 3-(3,5-Dibromo-4-hydroxybenzylidine-5-iodo-1,3-dihydro-indol-2-one)] | 41/42 | 33/34 | – | 41/42 | – | 33/34 | O (O, inactive or marginal effects (85-115% of control);) | − (−, moderate inhibition (50-85% of control):) | EDE | preferentially blocked tube formation in LEC rather than HUVEC cultures | promoting ectopic, premature angiogenesis; also recorded: the VVN was dysplastic | ectopic | normal | dyspiastic | HUVEC proliferation (HUVEC [4]): O (O, inactive or marginal effects (85-115% of control);) |
| O=Nc1c(-c2c(O)[nH]c3ccccc23)[nH]c2ccccc12 [Indirubin-3′-oxime] | – | – | – | – | – | – | – | – | – | – | – | – | – | – | activity at 1 µM (HUVEC [1]): 50 to 85%; activity at 1 µM (LEC [2]): 85 to 115%; activity at 10 µM (LEC [3]): 85 to 115%; activity at 10 µM (HUVEC [4]): 50 to 85%; Lethality (NF) (Xenopus embryos; Xenopus laevis, in vivo): 45 NF; scored in the phenotypic Xenopus screens (Xenopus embryos; in vivo): active |
| C#CCN1C(C)=C(C(=O)OC)C(c2cccc([N+](=O)[O-])c2)C(C(=O)OCC)=C1C (stereo not drawn) [MRS 1845, N-Propargylnitrendipene] | 45 NF | 41/42 | 41/42 | 45 embryonic stages according to Nieuwkoop and Faber (NF) | 41/42 | 41/42 | O (O, inactive or marginal effects (85-115% of control);) | − (−, moderate inhibition (50-85% of control):) | – | preferentially blocked tube formation in LEC rather than HUVEC cultures | – | – | – | – | LEC proliferation (LEC [3]): O (O, inactive or marginal effects (85-115% of control);); edema or other phenotype in compound-treated Xenopus embryos/tadpoles (in words) (Xenopus embryos; 20 μM, 1% DMSO): enlarged lymph hearts; Lymph heart enlargement (Xenopus embryos; embryonic stage): 41/42 |
| CN(C)S(=O)(=O)c1ccc2c(c1)C(=Cc1cc3c([nH]1)CCCC3)C(=O)N2 [SU 6656, 2,3-Dihydro-N,N-dimethyl-2-oxo-3-[(4,5,6,7-tetrahydro-1H-indol-2-yl)methylene]-1H-indole-5-sulfonamide] | 46 NF | 41/42 | 39/40 | 46 embryonic stages according to Nieuwkoop and Faber (NF) | 39/40 | 39/40 | – | – | – | – | – | – | – | – | Type of edema Proctodeal (Xenopus embryos; embryonic stage): 39/40; Type of edema Periocular (Xenopus embryos; embryonic stage): 41/42*; lymph vessel development phenotype (vegfr3 expression, in words) [5]: inhibiting preferentially lymphatic vascular development; also recorded: poorly developed, stunted lymphatics emerging from the ALS and ALH and hypoplastic PLV; Blood vessel phenotype ([5]; Xenopus embryos): normal; ALH phenotype ([5]; Xenopus embryos): dysplastic; ALS phenotype ([5]; Xenopus embryos): stunted; PLV phenotype ([5]; Xenopus embryos): hypopiastic |
| OCc1ccc(-c2nn(Cc3ccccc3)c3ccccc23)o1 [YC-1, 3-(5′-Hydroxymethyl-2′-fulyl)-1-benzyl indazole] | – | – | – | – | – | 45 NF | – | – | EDE | – | dispersed, punctuated patterns of VVN endothelia | normal | normal | hypoplastic | Lymphatic phenotype ([5]; Xenopus embryos): normal |
| COc1cc(-c2ccc(=O)[nH]n2)ccc1OC(F)F [Zardaverine, 6-(4-Difluoromethoxy-3-methoxyphenyl)-3(2H)-pyridazinone] | 43 NF | 39/40 | 41/42 | 43 embryonic stages according to Nieuwkoop and Faber (NF) | – | 39/40 | – | – | – | – | only interfered with the assembly of the VVN | normal | normal | hypoplastic | – |
| CC[C@@H]1/C=C/C=C/C[C@H](C)[C@H](O)[C@](C)(O)C(=O)[C@H](C)[C@@H](O)[C@H](C)C(=O)[C@H](C)[C@@H](O)[C@H](C)/C=C/C(=O)O[C@H]2[C@@H](C)[C@@H](CC1)O[C@@]1(CC[C@@H](C)[C@@H](C[C@H](C)O)O1)[C@@H]2C [oligomycin A] | – | – | – | – | – | – | – | – | – | preferentially blocked tube formation in LEC rather than HUVEC cultures | – | – | – | – | – |
